Measured values published in publication PMC6199744, “Development of Chemical Proteomics for the Folateome and Analysis of the Kinetoplastid Folateome” (ACS Infectious Diseases, 2018).

Key:
TS = biological target: T1, TS (Homo sapiens, UniProt P04818); assay: Multitargeted bead mixture competition, HeLa cell extract; format: binding; settings: protein TYMS; HeLa
T1 construct: endogenous in cells; host or cells: HeLa cell extract

[1] = system: glutamate 5′-kinase (LmjF.26.2710); assay: Multitargeted bead mixture competition; format: binding, Leishmania; settings: protein LMJF.26.2710 GLUTAMATE 5-KINASE, PUTATIVE
[2] = system: NGG1 INTERACTING FACTOR 3-LIKE (Tb427tmp.02.5000); format: binding; settings: protein TB427TMP.02.5000 NGG1 I[…] 3-LIKE; vehicle control = 1
[3] = system: CHOLINE KINASE (TB427TMP.18.0017); assay: Multitargeted bead mixture competition; format: binding, T. brucei; settings: protein TB427TMP.18.0017 CHOLINE KINASE; vehicle control = 1
[4] = biological target: T2, HeLa cell extract proteins (Homo sapiens, UniProt P53611); format: binding; settings: HeLa; captured protein RABGGTB
T2 construct: endogenous in cells; host or cells: HeLa cell extract
T2 sequence (P53611 1-331): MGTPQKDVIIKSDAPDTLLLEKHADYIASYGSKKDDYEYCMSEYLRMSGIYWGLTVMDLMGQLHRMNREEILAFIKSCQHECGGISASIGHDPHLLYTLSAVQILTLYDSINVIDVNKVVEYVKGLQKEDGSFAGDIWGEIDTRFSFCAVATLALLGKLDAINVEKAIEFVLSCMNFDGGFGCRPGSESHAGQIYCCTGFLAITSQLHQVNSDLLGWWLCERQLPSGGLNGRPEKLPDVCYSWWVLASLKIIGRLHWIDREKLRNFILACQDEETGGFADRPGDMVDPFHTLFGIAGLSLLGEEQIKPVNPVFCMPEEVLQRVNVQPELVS

[5] = biological target: T3, HeLa cell extract proteins (Homo sapiens, UniProt Q14204); format: binding; settings: HeLa; captured protein DYNC1H1
T3 construct: endogenous in cells; host or cells: HeLa cell extract

[6] = biological target: T4, HeLa cell extract proteins (Homo sapiens, UniProt Q96T76); format: binding; settings: HeLa; protein MMS19
T4 construct: endogenous in cells; host or cells: HeLa cell extract
T4 sequence (Q96T76 1-1030): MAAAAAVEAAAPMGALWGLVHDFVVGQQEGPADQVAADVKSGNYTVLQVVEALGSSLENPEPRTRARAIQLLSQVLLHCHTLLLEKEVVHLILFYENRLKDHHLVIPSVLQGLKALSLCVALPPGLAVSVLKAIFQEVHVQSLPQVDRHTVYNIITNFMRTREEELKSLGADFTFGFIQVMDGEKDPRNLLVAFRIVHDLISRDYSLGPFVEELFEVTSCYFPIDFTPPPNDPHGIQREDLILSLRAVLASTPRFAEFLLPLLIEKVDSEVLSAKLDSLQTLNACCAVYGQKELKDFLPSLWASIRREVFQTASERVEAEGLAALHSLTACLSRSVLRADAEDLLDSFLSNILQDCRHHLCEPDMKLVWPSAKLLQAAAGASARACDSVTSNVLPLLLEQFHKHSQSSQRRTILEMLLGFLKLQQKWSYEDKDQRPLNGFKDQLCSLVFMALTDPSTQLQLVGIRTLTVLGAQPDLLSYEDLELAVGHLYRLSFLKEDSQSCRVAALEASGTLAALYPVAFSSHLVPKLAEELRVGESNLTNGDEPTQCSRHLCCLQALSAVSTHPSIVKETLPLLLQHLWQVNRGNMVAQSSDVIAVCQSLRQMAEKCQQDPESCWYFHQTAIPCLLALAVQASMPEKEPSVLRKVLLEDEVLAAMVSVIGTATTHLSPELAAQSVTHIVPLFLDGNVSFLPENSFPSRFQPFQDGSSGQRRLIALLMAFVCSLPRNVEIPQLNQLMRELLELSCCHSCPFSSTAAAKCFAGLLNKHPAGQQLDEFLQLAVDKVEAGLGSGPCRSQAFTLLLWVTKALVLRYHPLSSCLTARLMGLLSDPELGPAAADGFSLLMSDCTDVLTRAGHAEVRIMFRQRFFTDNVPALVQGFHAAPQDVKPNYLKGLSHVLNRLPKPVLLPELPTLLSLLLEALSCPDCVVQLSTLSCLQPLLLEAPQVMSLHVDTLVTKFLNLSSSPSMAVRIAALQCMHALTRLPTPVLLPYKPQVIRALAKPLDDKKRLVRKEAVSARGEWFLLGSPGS

[7] = biological target: T5, HeLa cell extract proteins (Homo sapiens, UniProt P39019); format: binding; settings: HeLa; protein RPS19 (40S RIBOSOMAL PROTEIN S19)
T5 construct: endogenous in cells; host or cells: HeLa cell extract

[8] = biological target: T6, HeLa cell extract proteins (Homo sapiens, UniProt P60900); format: binding; settings: HeLa; protein PSMA6
T6 construct: endogenous in cells; host or cells: HeLa cell extract

[9] = biological target: T7, HeLa cell extract proteins (Homo sapiens, UniProt Q9UI30); format: binding; settings: HeLa; protein HSPC152
T7 construct: endogenous in cells; host or cells: HeLa cell extract
T7 sequence (Q9UI30 1-125): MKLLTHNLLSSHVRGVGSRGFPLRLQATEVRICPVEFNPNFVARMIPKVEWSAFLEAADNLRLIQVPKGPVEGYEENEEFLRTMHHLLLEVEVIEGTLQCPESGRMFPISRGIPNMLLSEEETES

[10] = biological target: T8, HeLa cell extract proteins (Homo sapiens, UniProt Q99720); format: binding; settings: HeLa; protein SIGMAR1
T8 construct: endogenous in cells; host or cells: HeLa cell extract

[11] = biological target: T9, HeLa cell extract proteins (Homo sapiens, UniProt P78527); format: binding; settings: HeLa; protein PRKDC (ISOFORM 1 OF DNA-DEPENDENT PROTEIN KINASE CATALYTIC SUBUNIT)
T9 construct: endogenous in cells; host or cells: HeLa cell extract
T9 sequence (P78527 whole entry, canonical isoform): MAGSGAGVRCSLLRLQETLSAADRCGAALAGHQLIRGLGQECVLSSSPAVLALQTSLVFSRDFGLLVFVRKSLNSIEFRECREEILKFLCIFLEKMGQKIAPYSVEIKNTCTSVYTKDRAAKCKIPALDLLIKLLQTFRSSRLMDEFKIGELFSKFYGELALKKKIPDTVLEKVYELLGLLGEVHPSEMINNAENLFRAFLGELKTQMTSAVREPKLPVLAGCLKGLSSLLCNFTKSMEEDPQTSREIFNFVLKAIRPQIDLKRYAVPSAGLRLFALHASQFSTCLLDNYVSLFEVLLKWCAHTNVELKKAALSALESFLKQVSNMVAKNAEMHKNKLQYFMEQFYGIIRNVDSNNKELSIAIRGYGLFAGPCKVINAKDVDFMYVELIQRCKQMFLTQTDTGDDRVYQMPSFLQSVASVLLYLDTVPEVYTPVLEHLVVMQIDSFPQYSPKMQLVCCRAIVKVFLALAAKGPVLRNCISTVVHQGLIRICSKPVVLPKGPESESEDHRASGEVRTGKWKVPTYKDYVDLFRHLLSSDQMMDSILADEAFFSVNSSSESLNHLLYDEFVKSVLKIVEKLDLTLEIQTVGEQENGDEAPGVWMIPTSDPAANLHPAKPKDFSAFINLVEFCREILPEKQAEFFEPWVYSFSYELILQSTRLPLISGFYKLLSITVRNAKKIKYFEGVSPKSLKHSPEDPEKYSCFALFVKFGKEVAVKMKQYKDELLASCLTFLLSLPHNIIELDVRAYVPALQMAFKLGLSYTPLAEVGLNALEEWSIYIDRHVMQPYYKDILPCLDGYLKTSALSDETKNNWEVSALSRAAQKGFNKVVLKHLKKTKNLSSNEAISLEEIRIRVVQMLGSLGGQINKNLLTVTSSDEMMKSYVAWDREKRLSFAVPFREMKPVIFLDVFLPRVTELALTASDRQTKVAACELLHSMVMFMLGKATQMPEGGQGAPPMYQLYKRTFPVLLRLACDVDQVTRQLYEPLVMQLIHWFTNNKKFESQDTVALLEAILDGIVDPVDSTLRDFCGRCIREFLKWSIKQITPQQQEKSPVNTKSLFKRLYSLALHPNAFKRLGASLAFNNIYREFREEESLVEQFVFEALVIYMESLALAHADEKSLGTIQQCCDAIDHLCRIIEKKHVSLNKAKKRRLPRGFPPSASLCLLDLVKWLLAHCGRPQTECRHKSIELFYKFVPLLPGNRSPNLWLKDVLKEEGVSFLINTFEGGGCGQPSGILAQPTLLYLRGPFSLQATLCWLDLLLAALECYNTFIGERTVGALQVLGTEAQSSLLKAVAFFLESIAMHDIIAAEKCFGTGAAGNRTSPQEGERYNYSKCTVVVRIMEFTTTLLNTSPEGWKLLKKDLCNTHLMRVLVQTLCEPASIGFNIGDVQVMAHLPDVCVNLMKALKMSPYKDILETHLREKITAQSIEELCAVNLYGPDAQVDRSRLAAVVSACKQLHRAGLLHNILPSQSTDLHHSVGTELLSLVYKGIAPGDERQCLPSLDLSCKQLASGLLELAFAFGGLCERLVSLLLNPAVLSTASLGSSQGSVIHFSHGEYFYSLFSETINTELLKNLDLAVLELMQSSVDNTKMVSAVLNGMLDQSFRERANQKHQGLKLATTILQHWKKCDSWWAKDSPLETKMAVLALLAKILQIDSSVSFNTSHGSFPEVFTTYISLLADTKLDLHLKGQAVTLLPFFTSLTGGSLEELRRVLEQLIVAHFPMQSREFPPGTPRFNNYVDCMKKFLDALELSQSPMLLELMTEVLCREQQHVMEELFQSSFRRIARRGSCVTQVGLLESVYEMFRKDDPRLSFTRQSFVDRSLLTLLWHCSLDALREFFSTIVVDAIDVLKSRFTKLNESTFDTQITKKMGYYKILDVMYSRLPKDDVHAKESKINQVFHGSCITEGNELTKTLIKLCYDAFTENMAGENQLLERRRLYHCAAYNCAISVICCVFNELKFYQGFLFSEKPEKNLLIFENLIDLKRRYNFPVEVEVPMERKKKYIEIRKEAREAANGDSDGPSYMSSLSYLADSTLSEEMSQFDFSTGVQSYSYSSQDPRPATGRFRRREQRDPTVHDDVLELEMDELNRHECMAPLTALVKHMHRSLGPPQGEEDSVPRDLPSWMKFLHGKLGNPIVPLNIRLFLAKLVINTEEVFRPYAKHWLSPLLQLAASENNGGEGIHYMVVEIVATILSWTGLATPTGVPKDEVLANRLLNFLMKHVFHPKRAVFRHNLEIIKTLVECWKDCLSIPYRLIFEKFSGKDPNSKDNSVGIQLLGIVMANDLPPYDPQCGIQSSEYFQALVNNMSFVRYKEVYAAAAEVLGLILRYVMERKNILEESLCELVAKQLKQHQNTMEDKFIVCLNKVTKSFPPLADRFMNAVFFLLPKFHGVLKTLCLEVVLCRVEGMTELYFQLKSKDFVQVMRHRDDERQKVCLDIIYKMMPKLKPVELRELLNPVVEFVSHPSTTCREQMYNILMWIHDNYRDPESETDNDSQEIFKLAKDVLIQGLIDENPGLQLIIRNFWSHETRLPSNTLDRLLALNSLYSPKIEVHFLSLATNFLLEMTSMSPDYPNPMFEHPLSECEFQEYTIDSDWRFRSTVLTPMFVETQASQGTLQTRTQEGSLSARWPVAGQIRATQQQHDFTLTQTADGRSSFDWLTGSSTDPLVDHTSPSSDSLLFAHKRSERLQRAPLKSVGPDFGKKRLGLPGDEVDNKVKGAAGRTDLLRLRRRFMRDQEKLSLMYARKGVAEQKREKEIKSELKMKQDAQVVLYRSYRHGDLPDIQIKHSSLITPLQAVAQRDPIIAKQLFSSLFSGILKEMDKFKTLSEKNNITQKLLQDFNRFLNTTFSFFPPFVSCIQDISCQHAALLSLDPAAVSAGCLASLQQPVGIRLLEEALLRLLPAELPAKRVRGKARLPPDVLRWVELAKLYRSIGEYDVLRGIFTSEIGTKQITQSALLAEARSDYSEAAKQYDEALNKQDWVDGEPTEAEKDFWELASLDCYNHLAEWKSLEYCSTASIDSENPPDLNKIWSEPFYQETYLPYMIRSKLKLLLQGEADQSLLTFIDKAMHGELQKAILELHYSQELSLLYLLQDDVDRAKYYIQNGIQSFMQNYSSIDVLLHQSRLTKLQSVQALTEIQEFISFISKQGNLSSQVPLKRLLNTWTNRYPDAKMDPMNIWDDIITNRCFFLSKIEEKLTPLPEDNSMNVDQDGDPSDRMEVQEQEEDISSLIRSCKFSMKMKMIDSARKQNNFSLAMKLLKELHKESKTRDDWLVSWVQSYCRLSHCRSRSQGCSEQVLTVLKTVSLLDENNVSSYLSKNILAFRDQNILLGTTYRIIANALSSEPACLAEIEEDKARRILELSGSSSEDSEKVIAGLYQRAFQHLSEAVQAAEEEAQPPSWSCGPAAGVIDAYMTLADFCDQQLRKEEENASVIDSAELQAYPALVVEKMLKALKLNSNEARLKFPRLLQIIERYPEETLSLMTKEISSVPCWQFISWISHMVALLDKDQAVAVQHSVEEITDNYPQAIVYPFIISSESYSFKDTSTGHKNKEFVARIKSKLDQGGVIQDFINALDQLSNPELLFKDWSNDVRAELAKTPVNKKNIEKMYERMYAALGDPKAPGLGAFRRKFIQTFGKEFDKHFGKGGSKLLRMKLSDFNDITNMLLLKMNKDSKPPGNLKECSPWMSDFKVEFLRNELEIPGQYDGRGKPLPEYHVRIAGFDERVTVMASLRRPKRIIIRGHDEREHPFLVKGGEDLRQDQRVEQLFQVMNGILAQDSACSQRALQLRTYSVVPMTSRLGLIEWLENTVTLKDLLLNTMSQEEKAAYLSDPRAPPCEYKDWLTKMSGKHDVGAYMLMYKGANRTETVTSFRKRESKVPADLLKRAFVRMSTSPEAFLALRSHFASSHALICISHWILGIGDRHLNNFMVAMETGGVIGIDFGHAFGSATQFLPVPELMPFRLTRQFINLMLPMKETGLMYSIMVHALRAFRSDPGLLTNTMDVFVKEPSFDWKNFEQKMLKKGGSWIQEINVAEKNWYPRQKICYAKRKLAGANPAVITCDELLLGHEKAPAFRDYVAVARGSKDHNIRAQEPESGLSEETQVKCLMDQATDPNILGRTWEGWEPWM

[12] = biological target: T10, HeLa cell extract proteins (Homo sapiens, UniProt P07355); format: binding; settings: HeLa; protein ANXA2
T10 construct: endogenous in cells; host or cells: HeLa cell extract
T10 sequence (P07355 whole entry): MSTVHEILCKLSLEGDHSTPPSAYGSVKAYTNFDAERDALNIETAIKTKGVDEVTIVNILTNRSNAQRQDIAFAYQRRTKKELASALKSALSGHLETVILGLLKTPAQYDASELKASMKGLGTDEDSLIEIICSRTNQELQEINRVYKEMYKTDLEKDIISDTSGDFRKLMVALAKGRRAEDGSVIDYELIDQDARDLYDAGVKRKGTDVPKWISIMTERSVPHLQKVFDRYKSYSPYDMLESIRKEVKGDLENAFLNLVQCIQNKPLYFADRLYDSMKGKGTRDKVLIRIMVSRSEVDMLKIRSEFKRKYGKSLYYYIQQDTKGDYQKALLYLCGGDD

[13] = biological target: T11, HeLa cell extract proteins (Homo sapiens, UniProt P00367); format: binding; settings: HeLa; protein GLUD1
T11 construct: endogenous in cells; host or cells: HeLa cell extract

[14] = biological target: GLYCERALDEHYDE 3-PHOSPHATE DEHYDROGENASE, GLYCOSOM (TB427.06.4300) (Trypanosoma brucei brucei, UniProt P22512); assay: Multitargeted bead mixture competition; format: binding, T. brucei; settings: protein TB427.06.4300 GLYCERALDEHYDE 3-PHOSPHATE DEHYDROGENASE, GLYCOSOMAL; vehicle control = 1
DHFR-TS = DHFR-TS (Leishmania major, UniProt P07382); format: binding; settings: protein LMJF.06.0860, DIH[…]-T[…]
DHFR-TS, sequence (P07382 whole entry): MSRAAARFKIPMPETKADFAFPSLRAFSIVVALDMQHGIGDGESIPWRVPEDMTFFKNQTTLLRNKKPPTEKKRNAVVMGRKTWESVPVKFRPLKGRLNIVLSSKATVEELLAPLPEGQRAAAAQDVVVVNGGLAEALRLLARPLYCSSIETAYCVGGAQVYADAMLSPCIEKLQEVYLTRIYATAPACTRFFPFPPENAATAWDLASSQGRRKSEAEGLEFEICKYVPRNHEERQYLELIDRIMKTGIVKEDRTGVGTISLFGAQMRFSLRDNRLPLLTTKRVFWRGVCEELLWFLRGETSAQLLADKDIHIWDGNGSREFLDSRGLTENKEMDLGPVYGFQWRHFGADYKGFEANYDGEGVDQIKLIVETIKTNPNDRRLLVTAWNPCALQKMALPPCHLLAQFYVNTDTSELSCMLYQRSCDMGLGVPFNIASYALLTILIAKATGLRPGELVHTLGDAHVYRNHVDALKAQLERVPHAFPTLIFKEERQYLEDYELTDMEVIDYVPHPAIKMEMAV

For `NCCCNc1ccc(C(=O)NC(CCC(=O)O)C(=O)O)cc1` (stereo not shown) [compound 7], the “fold changes relative to vehicle control” value (TS) was 1.04, the “fold change vs vehicle control” value [1] was 1 and the fold change [2] was 1.16. For the same compound, the “fold change vs vehicle control” value [3] was 1.16, the “fold changes relative to vehicle control” value [4] was 1.03 and the “fold changes relative to vehicle control” value [5] was 1.1. For the same compound, the “fold changes relative to vehicle control” value [6] was 1.02, the “fold changes relative to vehicle control” value [7] was 1.06 and the “fold changes relative to vehicle control” value [8] was 1. The “fold changes relative to vehicle control” value [9] was 1.29, the “fold changes relative to vehicle control” value [10] was 1.05 and the “fold changes relative to vehicle control” value [11] was 1.16. For the same compound, the “fold changes relative to vehicle control” value [12] was 0.97, the “fold changes relative to vehicle control” value [13] was 0.97 and the fold change [14] was 1.07. For the same compound, the “fold change relative to vehicle control” value (DHFR-TS) was 1.02.
